Laboratory results from patent EP0759299B1, “Potentiation of serotonin response” (ELI LILLY AND COMPANY, priority 1995, dated 1997).

Key:
Type in all cases: in vivo, Sprague-Dawley rats
5-HT = assay: Microdialysis assay of monoamines in hypothalamus of conscious rats: 5-HT; conditions: L-tryptophan 100 mg/kg i.p. at 150 min, single animal
Method: (§1) A David Kopf stereotaxic instrument was used to implant the probe unilaterally in the hypothalamus at coordinates rostral -1.5 mm, lateral -1.3 mm, and ventral -9.0 mm (Paxinos and Watson, 1986). After a 48 hour recovery period, rats were placed in a large plastic bowl with a mounted liquid swivel system (CMA/120 system for freely moving animals, Bioanalytical Systems, West Lafayette, IN). Filtered artificial cerebrospinal fluid (CSF) (150 mM NaCl, 3.0 mM KCl, 1.7 mM CaCl2, and 0.9 mM MgCl2) was perfused through the probe at a rate of […]. The output dialysate line was fitted to a tenport HPLC valve with a 20 µl loop. At the end of each 30 minute sampling period, dialysate collected in the loop was injected on an analytical column (Spherisorb 3 µ ODS2, 2X150 mm, Keystone Scientific).
(§2) The method used to measure monoamines was as described by Perry and Fuller (1992). Briefly, dialysate collected in the 20 µl loop was assayed for 5-HT, NE and DA. The 20 µl injection went onto the column with a mobile phase which resolved NE, DA, and 5-HT: 75 mM potassium acetate, 0.5 mM ethylenediaminetetraacetic acid, 1.4 mM sodium octanesulfonic acid and 8% methanol, pH 4.9. The mobile phase for the amine column was delivered with a flow programmable pump at an initial flow rate of 0.2 ml/min increasing to 0.3 ml/min at 5 min then decreasing back to 0.2 ml/min at 26 min with a total run time of 30 min. Flow programming was used to elute the 5-HT within a 25 min time period. The electrochemical detector (EG&G, Model 400) for the amine column was set at a potential of 400 mV and a sensitivity of 0.2 nA/V. The data was collected and analyzed with a Hewlett-Packard HP1000 chromatography system which measured peak heights and calculated sample concentrations. Basal levels were measured for at least 90 minutes prior to drug administration.
(§3) Extracellular levels of the amines in microdialysates were calculated by comparing peak heights with those of 50 pmole standards. The mean value of the four samples immediately preceding drug administration served as the basal level for each experiment and data was converted to percent of basal. Paired t-tests were used to compare the mean of the basal values from the time point immediately preceding drug administration to those of each time point thereafter.

NE = assay: Microdialysis assay of monoamines in hypothalamus of conscious rats: NE; conditions: percent of baseline, pindolol s.c. infusion 50 mg/kg/hr from 120 min, single animal
Method: as §1, §2
Extracellular levels of the amines in microdialysates were calculated by comparing peak heights with those of 50 pmole standards. […]

DA = assay: Microdialysis assay of monoamines in hypothalamus of conscious rats: DA; conditions: percent of baseline, pindolol s.c. infusion 50 mg/kg/hr from 120 min, single animal
Method: as §1, §2, §3

| Structure (SMILES) | 5-HT (5-HT; Test 1, 180 min) | 5-HT (5-HT; Test 1, 210 min) | 5-HT (5-HT; Test 1, 240 min) | 5-HT (5-HT; Test 1, 270 min) | NE (%) (NE; Test 2, 150 min) | NE (%) (NE; Test 2, 210 min) | NE (%) (NE; Test 2, 240 min) | DA (%) (DA; Test 2, 150 min) | DA (%) (DA; Test 2, 180 min) | DA (%) (DA; Test 2, 210 min) | DA (%) (DA; Test 2, 240 min) |
| --- | --- | --- | --- | --- | --- | --- | --- | --- | --- | --- | --- |
| N[C@@H](Cc1c[nH]c2ccccc12)C(=O)O [L-tryptophan] | 88.5% of basal | 83.6% of basal | 76.3% of basal | 73.9% of basal |  |  |  |  |  |  |  |
| CC(C)NCC(O)COc1cccc2[nH]ccc12 (racemic) [pindolol, 4-(2-hydroxy-3-isopropylaminopropoxy)-indole] |  |  |  |  | 221.5 | 232.5 | 261.9 | 87.2 | 73.2 | 70.3 | 68.5 |
